Reference: patent US7410963B2, “Benzo-1,4-diazepin-2-one derivatives as phosphodiesterase PDE2 inhibitors, preparation and therapeutic use thereof” (VIA Pharmaceuticals, Inc., priority 2003, dated 2008)

Each compound was assayed against T1, PDE2 (Bos taurus, UniProt P14099) (assay: Radioenzymatic phosphodiesterase assay: PDE2 inhibition). Conditions: Table 1; 10 μM test compound; read-out: PDE2 percentage of inhibition at 10 μM.
T1 sequence (P14099 1-921): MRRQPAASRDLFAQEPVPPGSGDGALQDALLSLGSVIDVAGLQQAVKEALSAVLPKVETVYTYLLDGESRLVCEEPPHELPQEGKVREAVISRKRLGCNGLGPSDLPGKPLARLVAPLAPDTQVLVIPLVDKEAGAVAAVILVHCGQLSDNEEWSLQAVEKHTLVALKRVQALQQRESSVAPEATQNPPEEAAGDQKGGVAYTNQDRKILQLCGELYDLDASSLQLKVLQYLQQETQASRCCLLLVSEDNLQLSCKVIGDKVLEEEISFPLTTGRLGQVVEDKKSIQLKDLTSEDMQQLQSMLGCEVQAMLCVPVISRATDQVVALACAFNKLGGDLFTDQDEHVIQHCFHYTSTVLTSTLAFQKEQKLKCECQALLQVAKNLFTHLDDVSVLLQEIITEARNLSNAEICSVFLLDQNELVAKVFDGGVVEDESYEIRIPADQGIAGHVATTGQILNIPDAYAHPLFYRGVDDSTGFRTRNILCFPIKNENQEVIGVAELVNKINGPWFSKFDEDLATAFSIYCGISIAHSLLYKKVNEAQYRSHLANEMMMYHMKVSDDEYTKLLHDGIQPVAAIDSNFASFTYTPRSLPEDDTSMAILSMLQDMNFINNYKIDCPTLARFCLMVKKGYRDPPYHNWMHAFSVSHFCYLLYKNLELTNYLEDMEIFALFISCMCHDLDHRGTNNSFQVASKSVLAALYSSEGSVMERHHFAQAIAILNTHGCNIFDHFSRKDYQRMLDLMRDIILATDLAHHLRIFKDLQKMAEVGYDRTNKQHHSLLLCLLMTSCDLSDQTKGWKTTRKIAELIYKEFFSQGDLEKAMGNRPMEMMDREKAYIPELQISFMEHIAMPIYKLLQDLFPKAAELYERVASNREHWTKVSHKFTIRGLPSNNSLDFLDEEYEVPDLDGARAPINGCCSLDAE
Format: biochemical, bovine
Method: Nucleoside radioactivity was determined by liquid scintillation.

`COc1cc2c(cc1-c1ccco1)C(c1cccc(C(N)=O)c1)=NCC(=O)N2C` [Example 26, 3-(7-Furan-2-yl-8-methoxy-1-methyl-2-oxo-2,3-dihydro-1H-benzo[e][1,4]diazepin-5-yl)-benzamide] was tested. Which inhibition at 10 µM did it give?
The inhibition at 10 µM was 71%.

`CN1C(=O)CN=C(c2ccc(F)cc2)c2cc(-c3ccccc3)ccc21` [Example 57, 5-(4-Fluoro-phenyl)-1-methyl-7-phenyl-1,3-dihydro-benzo[e][1,4]diazepin-2-one] was tested. Which inhibition at 10 µM did it give?
Its inhibition at 10 µM is 74%.

For `CN1C(=O)CN=C(c2cccc(N)c2)c2cc(-c3ccccc3)ccc21` [Example 68, 5-(3-Amino-phenyl)-1-methyl-7-phenyl-1,3-dihydro-benzo[e][1,4]diazepin-2-one], which inhibition at 10 µM is on record?
Its inhibition at 10 µM is 52%.

`COc1cccc(Cl)c1-c1ccc2c(c1)C(c1cccc(C#N)c1)=NCC(=O)N2C` [Example 82, 3-[7-(2-Chloro,6-methoxy-phenyl)-1-methyl-2-oxo-2,3-dihydro-1H-benzo[e][1,4]diazepin-5-yl]-benzonitrile] was tested. Which inhibition at 10 µM did it give?
The inhibition at 10 µM was 92%.

How did the inhibition at 10 µM turn out when `CN1C(=O)CN=C(c2ccc(OC(F)(F)F)cc2)c2cc(-c3ccccc3)ccc21` [Example 61, 1-Methyl-7-phenyl-5-(4-trifluoromethoxy-phenyl)-1,3-dihydro-benzo[e][1,4]diazepin-2-one] was run?
Its inhibition at 10 µM is 31%.

For `COc1cccc(OC)c1-c1ccc2c(c1)C(c1cccc(C#N)c1)=NCC(=O)N2C` [Example 16, 3-[7-(2,6-Dimethoxy-phenyl)-1-methyl-2-oxo-2,3-dihydro-1H-benzo[e][1,4]diazepin-5-yl]-benzonitrile], which inhibition at 10 µM is on record?
The inhibition at 10 µM was 100%.

How did the inhibition at 10 µM turn out when `COc1cc2c(cc1-c1ccco1)C(c1cccc(C#N)c1)=NCC(=O)N2C` [Example 8, 3-(7-Furan-2-yl-8-methoxy-1-methyl-2-oxo-2,3-dihydro-1H-benzo[e][1,4]diazepin-5-yl)-benzonitrile] was run?
The inhibition at 10 µM was 47%.

`COc1cc2c(cc1-c1ccccc1)C(c1ccccc1Br)=NCC(=O)N2` [Example 102, 5-(2-Bromo-phenyl)-8-methoxy-7-phenyl-1,3-dihydro-benzo[e][1,4]diazepin-2-one] was tested. Which inhibition at 10 µM did it give?
Its inhibition at 10 µM is 48%.

For `CN1C(=O)CN=C(c2ccccc2Cl)c2cc(-c3ccccc3)ccc21` [Example 41, 5-(2-Chloro-phenyl)-1-methyl-7-phenyl-1,3-dihydro-benzo[e][1,4]diazepin-2-one], which inhibition at 10 µM is on record?
Its inhibition at 10 µM is 34%.

For `COc1cc2c(cc1-c1ccccc1)C(c1cccc(Br)c1)=NCC(=O)N2C` [Example 62, 5-(3-Bromo-phenyl)-8-methoxy-1-methyl-7-phenyl-1,3-dihydro-benzo[e][1,4]diazepin-2-one], which inhibition at 10 µM is on record?
Its inhibition at 10 µM is 98%.

`CN1C(=O)CN=C(c2cccc(C=O)c2)c2cc(-c3ccccc3)ccc21` [Example 9, 3-(1-Methyl-2-oxo-7-phenyl-2,3-dihydro-1H-benzo[e][1,4]diazepin-5-yl)-benzaldehyde] was tested. Which inhibition at 10 µM did it give?
Its inhibition at 10 µM is 84%.

With `COc1ccccc1-c1cc2c(cc1OC)NC(=O)CN=C2c1cccc(C#N)c1` [Example 10, 3-[8-Methoxy-7-(2-methoxy-phenyl)-2-oxo-2,3-dihydro-1H-benzo[e][1,4]diazepin-5-yl]-benzonitrile] as the compound, how does the inhibition at 10 µM read?
The inhibition at 10 µM was 94%.

`COc1ccc(-c2ccc3c(c2)C(c2cccc(C#N)c2)=NCC(=O)N3C)cc1` [Example 14, 3-[7-(4-Methoxy-phenyl)-1-methyl-2-oxo-2,3-dihydro-1H-benzo[e][1,4]diazepin-5-yl]-benzonitrile] was tested. Which inhibition at 10 µM did it give?
The inhibition at 10 µM was 92%.

How did the inhibition at 10 µM turn out when `COc1ccc(-c2cc3c(cc2OC)N(C)C(=O)CN=C3c2cccc(C#N)c2)cc1` [Example 4, 3-[8-Methoxy-7-(4-methoxy-phenyl)-1-methyl-2-oxo-2,3-dihydro-1H-benzo[e][1,4]diazepin-5-yl]-benzonitrile] was run?
Its inhibition at 10 µM is 97%.

For `COc1ccccc1-c1cc2c(cc1OC)N(CCc1ccccc1)C(=O)CN=C2c1cccc(C#N)c1` [Example 38, 3-[8-Methoxy-7-(2-methoxy-phenyl)-2-oxo-1-phenethyl-2,3-dihydro-1H-benzo[e][1,4]diazepin-5-yl]-benzonitrile], which inhibition at 10 µM is on record?
The inhibition at 10 µM was 86%.

Same assay, conditions: read-out: PDE2 percentage of inhibition at 10 μM

Which inhibition at 10 µM does the source give for `COc1ccc(C2=NCC(=O)N(C)c3cc(OC)c(-c4cc(OC)ccc4OC)cc32)cc1` [Example 110, 7-(2,5-Dimethoxy-phenyl)-8-methoxy-5-(4-methoxy-phenyl)-1-methyl-1,3-dihydro-benzo[e][1,4]diazepin-2-one] here?
Its inhibition at 10 µM is 99%.

Which inhibition at 10 µM does the source give for `COc1ccc(C2=NCC(=O)N(C)c3cc(OC)c(-c4ccccc4Oc4ccccc4)cc32)cc1` [Example 112, 8-Methoxy-5-(4-methoxy-phenyl)-1-methyl-7-(2-phenoxy-phenyl)-1,3-dihydro-benzo[e][1,4]diazepin-2-one] here?
Its inhibition at 10 µM is 99%.

How did the inhibition at 10 µM turn out when `CCCCCCN1C(=O)CN=C(c2cccc(C#N)c2)c2cc(-c3ccccc3OC)c(OC)cc21` [Example 35, 3-[1-Hexyl-8-methoxy-7-(2-methoxy-phenyl)-2-oxo-2,3-dihydro-1H-benzo[e][1,4]diazepin-5-yl]-benzonitrile] was run?
The inhibition at 10 µM was 39%.

With `CN1C(=O)CN=C(c2cccc(C#N)c2)c2cc(-c3ccccc3Oc3ccccc3)ccc21` [Example 88, 3-[1-Methyl-2-oxo-7-(2-phenoxy-phenyl)-2,3-dihydro-1H-benzo[e][1,4]diazepin-5-yl]-benzonitrile] as the compound, how does the inhibition at 10 µM read?
The inhibition at 10 µM was 89%.

For `COc1ccccc1-c1cc2c(cc1OC)N(Cc1ccccc1)C(=O)CN=C2c1cccc(C#N)c1` [Example 39, 3-[1-Benzyl-8-methoxy-7-(2-methoxy-phenyl)-2-oxo-2,3-dihydro-1H-benzo[e][1,4]diazepin-5-yl]-benzonitrile], which inhibition at 10 µM is on record?
The inhibition at 10 µM was 72%.

For `COc1cc2c(cc1-c1ccc(Cl)cc1)C(c1cccc(C#N)c1)=NCC(=O)N2C` [Example 7, 3-[7-(4-Chloro-phenyl)-8-methoxy-1-methyl-2-oxo-2,3-dihydro-1H-benzo[e][1,4]diazepin-5-yl]-benzonitrile], which inhibition at 10 µM is on record?
The inhibition at 10 µM was 91%.

For `COc1ccc(C2=NCC(=O)N(C)c3ccc(-c4ccccc4)cc32)cc1` [Example 50, 5-(4-Methoxy-phenyl)-1-methyl-7-phenyl-1,3-dihydro-benzo[e][1,4]diazepin-2-one], which inhibition at 10 µM is on record?
Its inhibition at 10 µM is 95%.

`COc1cccc(OC)c1-c1ccc2c(c1)C(c1ccc(Cl)c(Cl)c1)=NCC(=O)N2C` [Example 99, 5-(3,4-Dichloro-phenyl)-7-(2,6-dimethoxy-phenyl)-1-methyl-1,3-dihydro-benzo[e][1,4]diazepin-2-one] was tested. Which inhibition at 10 µM did it give?
Its inhibition at 10 µM is 98%.

How did the inhibition at 10 µM turn out when `COc1ccc(-c2ccc3c(c2)C(c2cccc(C(N)=O)c2)=NCC(=O)N3C)cc1OC` [Example 54, 3-[7-(3,4-Dimethoxy-phenyl)-1-methyl-2-oxo-2,3-dihydro-1H-benzo[e][1,4]diazepin-5-yl]-benzamide] was run?
The inhibition at 10 µM was 94%.

`COc1cccc(OC)c1-c1ccc2c(c1)C(c1ccc(C)c([N+](=O)[O-])c1)=NCC(=O)N2C` [Example 77, 7-(2,6-Dimethoxy-phenyl)-1-methyl-5-(4-methyl-3-nitro-phenyl)-1,3-dihydro-benzo[e][1,4]diazepin-2-one] was tested. Which inhibition at 10 µM did it give?
The inhibition at 10 µM was 99%.

`CCCCC#Cc1cccc(C2=NCC(=O)N(C)c3cc(OC)c(-c4ccccc4)cc32)c1` [Example 66, 5-(3-Hex-1-ynyl-phenyl)-8-methoxy-1-methyl-7-phenyl-1,3-dihydro-benzo[e][1,4]diazepin-2-one] was tested. Which inhibition at 10 µM did it give?
Its inhibition at 10 µM is 86%.

For `COc1cc2c(cc1-c1cccc(Cl)c1)C(c1cccc(C#N)c1)=NCC(=O)N2C` [Example 6, 3-[7-(3-Chloro-phenyl)-8-methoxy-1-methyl-2-oxo-2,3-dihydro-1H-benzo[e][1,4]diazepin-5-yl]-benzonitrile], which inhibition at 10 µM is on record?
The inhibition at 10 µM was 96%.

For `CCCN1C(=O)CN=C(c2cccc(C(N)=O)c2)c2cc(-c3ccccc3OC)c(OC)cc21` [Example 45, 3-[8-Methoxy-7-(2-methoxy-phenyl)-2-oxo-1-propyl-2,3-dihydro-1H-benzo[e][1,4]diazepin-5-yl]-benzamide], which inhibition at 10 µM is on record?
Its inhibition at 10 µM is 48%.

`COc1ccc(C2=NCC(=O)N(C)c3cc(OC)c(-c4c(F)cccc4OC)cc32)cc1` [Example 111, 7-(2-Fluoro-6-methoxy-phenyl)-8-methoxy-5-(4-methoxy-phenyl)-1-methyl-1,3-dihydro-benzo[e][1,4]diazepin-2-one] was tested. Which inhibition at 10 µM did it give?
Its inhibition at 10 µM is 99%.

How did the inhibition at 10 µM turn out when `COc1cc2c(cc1-c1ccccc1OC(C)C)C(c1cccc(C(N)=O)c1)=NCC(=O)N2C` [Example 78, 3-[7-(2-Isopropoxy-phenyl)-8-methoxy-1-methyl-2-oxo-2,3-dihydro-1H-benzo[e][1,4]diazepin-5-yl]-benzamide] was run?
Its inhibition at 10 µM is 97%.

With `COc1ccccc1-c1cc2c(cc1Oc1ccccc1)N(C)C(=O)CN=C2c1cccc(C#N)c1` [Example 70, 3-[7-(2-Methoxy-phenyl)-1-methyl-2-oxo-8-phenoxy-2,3-dihydro-1H-benzo[e][1,4]diazepin-5-yl]-benzonitrile] as the compound, how does the inhibition at 10 µM read?
The inhibition at 10 µM was 95%.
